ChEMBL document CHEMBL1130847, “Synthesis and pharmacology of N-alkylated derivatives of the excitotoxin ibotenic acid” (Bioorg Med Chem Lett, 1998)

Key:
[1] = target: Metabotropic glutamate receptor 1 (Rattus norvegicus, UniProt P23385); assay: Compound was evaluated for agonistic activity against mGluR1 alpha metabotropic receptor subtype in rat cortical slice model; format: functional
Rattus norvegicus = species: Rattus norvegicus; assay: Evaluated for effective concentration in, in vitro electrophysiological model in the rat cortical slice model.; format: functional

Chain of Metabotropic glutamate receptor 1 (P23385 whole entry): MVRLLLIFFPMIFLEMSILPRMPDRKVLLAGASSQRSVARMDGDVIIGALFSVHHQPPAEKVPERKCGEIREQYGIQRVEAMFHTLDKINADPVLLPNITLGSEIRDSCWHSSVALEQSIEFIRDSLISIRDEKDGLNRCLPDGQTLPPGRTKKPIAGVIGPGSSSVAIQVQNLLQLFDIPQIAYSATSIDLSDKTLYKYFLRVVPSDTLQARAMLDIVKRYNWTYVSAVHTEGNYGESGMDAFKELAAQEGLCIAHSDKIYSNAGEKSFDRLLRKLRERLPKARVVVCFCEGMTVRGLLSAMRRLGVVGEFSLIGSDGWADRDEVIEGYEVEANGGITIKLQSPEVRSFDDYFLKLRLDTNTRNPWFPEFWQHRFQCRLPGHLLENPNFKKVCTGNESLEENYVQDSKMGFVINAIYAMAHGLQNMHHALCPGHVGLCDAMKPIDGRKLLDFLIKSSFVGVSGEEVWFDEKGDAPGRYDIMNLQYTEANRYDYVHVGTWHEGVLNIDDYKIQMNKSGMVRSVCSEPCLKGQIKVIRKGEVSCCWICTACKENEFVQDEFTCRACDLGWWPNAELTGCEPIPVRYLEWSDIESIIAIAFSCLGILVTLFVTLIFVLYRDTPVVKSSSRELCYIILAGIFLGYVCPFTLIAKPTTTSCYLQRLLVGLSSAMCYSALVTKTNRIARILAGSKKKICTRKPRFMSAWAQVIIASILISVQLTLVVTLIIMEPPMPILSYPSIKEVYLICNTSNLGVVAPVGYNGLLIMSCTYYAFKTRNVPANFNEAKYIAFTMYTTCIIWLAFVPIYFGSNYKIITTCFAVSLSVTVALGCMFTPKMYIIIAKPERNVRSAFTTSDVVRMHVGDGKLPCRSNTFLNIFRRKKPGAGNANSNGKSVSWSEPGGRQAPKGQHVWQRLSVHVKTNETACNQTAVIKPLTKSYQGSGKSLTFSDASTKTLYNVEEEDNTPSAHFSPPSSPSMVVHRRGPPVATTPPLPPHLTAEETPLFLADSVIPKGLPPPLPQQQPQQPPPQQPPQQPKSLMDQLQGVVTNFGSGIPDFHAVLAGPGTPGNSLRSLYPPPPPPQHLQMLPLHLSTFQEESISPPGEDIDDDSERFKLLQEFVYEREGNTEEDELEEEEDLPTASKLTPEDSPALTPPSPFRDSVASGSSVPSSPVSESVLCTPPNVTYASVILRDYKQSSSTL

| Compound | EC50 [1] [µM] | EC50 (Rattus norvegicus) [µM] |
| --- | --- | --- |
| Cc1onc(O)c1C(N)C(=O)O (stereo not given) | > 1000 | 12 |
| NC(C(=O)O)c1cc(O)no1 (stereo not given) | 43 | 9.6 |
| CCNC(C(=O)O)c1cc(O)no1 (stereo not given) | > 1000 | 320 |
| O=C(O)C(NCc1ccccc1)c1cc(O)no1 (stereo not given) | > 1000 | > 1000 |
| CNC(C(=O)O)c1cc(O)no1 (stereo not given) | > 1000 | 140 |
